Source: BindingDB's records for doi:10.3109/14756366.2011.637200 (Kirklareli University, 2013)
pKi: −log10 of the molar value.

Columns and labels:
Experiment in all cases: CA Inhibition Assay
Conditions in all cases: pH 7.5; 25 °C
[1] = target: Carbonic anhydrase 1 (Homo sapiens, UniProt P00915)
[2] = target: Carbonic anhydrase 2 (Homo sapiens, UniProt P00918)
[3] = target: Carbonic anhydrase 6 (Homo sapiens, UniProt P23280)
Sequence of Carbonic anhydrase 6 (P23280 whole entry): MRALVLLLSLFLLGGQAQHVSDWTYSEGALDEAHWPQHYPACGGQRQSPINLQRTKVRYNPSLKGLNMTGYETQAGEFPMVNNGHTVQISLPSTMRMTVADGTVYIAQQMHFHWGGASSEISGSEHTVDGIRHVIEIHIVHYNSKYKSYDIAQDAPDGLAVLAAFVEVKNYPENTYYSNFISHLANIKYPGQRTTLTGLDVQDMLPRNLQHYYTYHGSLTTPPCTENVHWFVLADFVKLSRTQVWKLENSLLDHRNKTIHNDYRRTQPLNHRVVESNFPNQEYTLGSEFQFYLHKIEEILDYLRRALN

Sequence of Carbonic anhydrase 1 (P00915 whole entry): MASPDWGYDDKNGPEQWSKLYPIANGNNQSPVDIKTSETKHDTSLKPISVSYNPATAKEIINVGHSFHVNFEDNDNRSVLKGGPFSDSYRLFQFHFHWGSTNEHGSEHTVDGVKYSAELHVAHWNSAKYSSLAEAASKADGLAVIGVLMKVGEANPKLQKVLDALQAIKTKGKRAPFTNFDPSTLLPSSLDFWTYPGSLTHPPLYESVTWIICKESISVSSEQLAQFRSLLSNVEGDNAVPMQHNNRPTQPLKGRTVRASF

pKi [1]	pKi [2]	pKi [3]	Compound
5.64	6.11	6.23	Cc1c(CCO)sc[n+]1C [CA inhibitor, 1]
5.94	6.98	6.89	Cc1c(CCO)sc[n+]1Cc1ccccc1 [CA inhibitor, 2]
6.42	7.07	7.21	Cc1ncc(C[n+]2csc(CCO)c2C)c(N)n1 [Vitamin B 1]
